This is an account of results in US10829490B2, “Substituted dihydropyrazino[1 ′,2′:1,5]pyrrolo[2,3-d]pyrimidine-based antiproliferative agents” (G1 Therapeutics, Inc., priority 2016, dated 2020).

One assay addresses CDK2/CycA (Homo sapiens (Human), UniProt P24941). The assay can be described thus: CDK2/CycA kinase inhibition (Biological Table 1). In kind it is biochemical.
The target of another assay is CDK7/CycH/MAT1 (Homo sapiens (Human), UniProt P50613). The assay can be described thus: CDK7/CycH/MAT1 kinase inhibition (Biological Table 2). In kind it is biochemical.
For the next assay, the target named is CDK2/CycE (Homo sapiens (Human), UniProt P24941). The assay can be described thus: CDK2/CycE kinase inhibition (Biological Table 1). In kind it is biochemical.
The next assay has as its target CDK6/CycD3 (Homo sapiens (Human), UniProt Q00534). The assay can be described thus: CDK6/CycD3 kinase inhibition (Biological Table 1). In kind it is biochemical.
The next assay has as its target CDK5/p35 (Homo sapiens (Human), UniProt Q00535). The assay can be described thus: CDK5/p35 kinase inhibition (Biological Table 1). The class given is biochemical.
The target of another assay is CDK9/CycT (Homo sapiens (Human), UniProt P50750). The assay can be described thus: CDK9/CycT kinase inhibition (Biological Table 2). The class given is biochemical.
For another assay, the target named is CDK5/p25 (Homo sapiens (Human), UniProt Q00535). The assay can be described thus: CDK5/p25 kinase inhibition (Biological Table 2). The class given is biochemical.
In the next assay the target is CDK4/CycD (Homo sapiens (Human), UniProt P11802). The assay can be described thus: CDK4/CycD kinase inhibition (Biological Table 1). The class given is biochemical.
The target in the next assay is CDK2/CyclinE (Homo sapiens (Human), UniProt P24941). The experiment in a line: CDK2/cyclinE kinase assay, microfluidic kinase detection (Caliper, Nanosyn). The class given is biochemical. The settings on record: 12-point dose-response, ATP at Km (100 μM), enzyme 0.28 nM, incubation 1 hr; read-out: CDK2/Cyclin E. The procedure:
(§1) Selected compounds disclosed herein were tested in CDK4/cyclinD1, CDK2/CycA and CDK2/cyclinE kinase assays by Nanosyn (Santa Clara, Calif.) to determine their inhibitory effect on these CDKs. The assays were performed using microfluidic kinase detection technology (Caliper Assay Platform). The compounds were tested in 12-point dose-response format in singlicate at Km for ATP. Phosphoacceptor substrate peptide concentration used was 1 μM for all assays and Staurosporine was used as the reference compound for all assays. Specifics of each assay are as described below:
CDK2/CyclinE: Enzyme concentration: 0.28 nM; ATP concentration: 100 μM; Incubation time: 1 hr.

In another assay the target is CDK2/CyclinA (Homo sapiens (Human), UniProt P24941). The assay can be described thus: CDK2/CycA kinase assay, microfluidic kinase detection (Caliper, Nanosyn). The class given is biochemical. The settings on record: 12-point dose-response, ATP at Km (50 μM), enzyme 0.2 nM, incubation 3 hr; read-out: CDK2/Cyclin A. The procedure: as §1
CDK2/CyclinA: Enzyme concentration: 0.2 nM; ATP concentration: 50 μM; Incubation time: 3 hr.

The target of the next assay is CDK6/Cyclin D3 (Homo sapiens (Human), UniProt Q00534). The assay can be described thus: CDK6/Cyclin D3 kinase assay (Biological Table 3). In kind it is biochemical. The procedure:
[Worded in the source for another target; this target is reported under the same test.] Selected compounds disclosed herein were tested in CDK4/cyclinD1, CDK2/CycA and CDK2/cyclinE kinase assays by Nanosyn (Santa Clara, Calif.) to determine their inhibitory effect on these CDKs. The assays were performed using microfluidic kinase detection technology (Caliper Assay Platform). The compounds were tested in 12-point dose-response format in singlicate at Km for ATP. Phosphoacceptor substrate peptide concentration used was 1 μM for all assays and Staurosporine was used as the reference compound for all assays.

In a further assay the target is CDK4/CyclinD1 (Homo sapiens (Human), UniProt P11802). The assay can be described thus: CDK4/cyclinD1 kinase assay, microfluidic kinase detection (Caliper, Nanosyn). The settings on record: 12-point dose-response, ATP at Km (200 μM), enzyme 1 nM, incubation 10 hr; read-out: CDK4/Cyclin D1. The class given is biochemical. The procedure: as §1
CDK4/CyclinD1: Enzyme concentration: 1 nM; ATP concentration: 200 μM; Incubation time: 10 hr.

A further assay concerns Hs68 cells. The experiment in a line: Cell population by DNA content (<2N, G0-G1, S, G2-M) as measure of apoptotic cells. The class given is cell-based. The conditions noted are these: at every dose administered (FIG. 4). From the text:
FIG. 4 is a bar graph showing the population of cells with a DNA content less than 2N, cells in the G0-G1 phase, cells in the S phase, and cells in the G2-M phase as a way to measure the relative amount of apoptotic cells following administration of control and Compound 28. The population of apoptotic cells after exposure to Compound 28 was greater than 70% at every dose administered. The assay was done in a population of Hs68 cells. * is <2000 events. The Compound number and dose, measured in μM and nM, are shown on the x-axis and the cell population, measured in percent, is shown on the y-axis.

For another assay, the target named is CDK9/Cyclin T (Homo sapiens (Human), UniProt P50750). The assay can be described thus: CDK9/Cyclin T kinase assay (Biological Table 3). The class given is biochemical.
CDK9/Cyclin T, sequence (P50750 whole entry): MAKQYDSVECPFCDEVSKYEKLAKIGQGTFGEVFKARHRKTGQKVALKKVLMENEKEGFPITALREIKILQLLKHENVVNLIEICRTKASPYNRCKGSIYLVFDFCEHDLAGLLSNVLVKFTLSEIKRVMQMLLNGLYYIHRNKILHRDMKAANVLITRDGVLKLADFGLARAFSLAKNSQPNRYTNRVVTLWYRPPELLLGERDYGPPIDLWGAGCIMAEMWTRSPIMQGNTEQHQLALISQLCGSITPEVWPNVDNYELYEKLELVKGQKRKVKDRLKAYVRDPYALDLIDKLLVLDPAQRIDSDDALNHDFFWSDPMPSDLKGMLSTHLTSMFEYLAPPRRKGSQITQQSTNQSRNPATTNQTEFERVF
CDK9/Cyclin T, sequence (O60563 whole entry partner): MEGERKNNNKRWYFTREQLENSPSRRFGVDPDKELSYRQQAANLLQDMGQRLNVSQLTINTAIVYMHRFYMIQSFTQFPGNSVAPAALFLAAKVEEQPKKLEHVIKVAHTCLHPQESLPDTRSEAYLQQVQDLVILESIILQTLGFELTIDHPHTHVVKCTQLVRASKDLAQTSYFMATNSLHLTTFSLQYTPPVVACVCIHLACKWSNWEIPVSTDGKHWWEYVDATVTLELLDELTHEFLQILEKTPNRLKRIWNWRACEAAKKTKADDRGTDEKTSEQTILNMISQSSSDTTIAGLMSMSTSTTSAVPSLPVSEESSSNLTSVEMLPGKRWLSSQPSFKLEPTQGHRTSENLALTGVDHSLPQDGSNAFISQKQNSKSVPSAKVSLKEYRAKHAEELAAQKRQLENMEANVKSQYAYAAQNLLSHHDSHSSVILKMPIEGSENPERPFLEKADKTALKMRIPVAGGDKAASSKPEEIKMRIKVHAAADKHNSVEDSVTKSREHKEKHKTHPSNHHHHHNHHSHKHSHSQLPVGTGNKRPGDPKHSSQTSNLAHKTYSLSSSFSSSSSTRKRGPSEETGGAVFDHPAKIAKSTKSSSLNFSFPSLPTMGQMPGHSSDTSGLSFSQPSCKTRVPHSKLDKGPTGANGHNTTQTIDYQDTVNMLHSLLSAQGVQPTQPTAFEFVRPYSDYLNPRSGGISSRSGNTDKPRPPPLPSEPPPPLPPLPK

CDK6/CycD3, sequence (Q00534 whole entry): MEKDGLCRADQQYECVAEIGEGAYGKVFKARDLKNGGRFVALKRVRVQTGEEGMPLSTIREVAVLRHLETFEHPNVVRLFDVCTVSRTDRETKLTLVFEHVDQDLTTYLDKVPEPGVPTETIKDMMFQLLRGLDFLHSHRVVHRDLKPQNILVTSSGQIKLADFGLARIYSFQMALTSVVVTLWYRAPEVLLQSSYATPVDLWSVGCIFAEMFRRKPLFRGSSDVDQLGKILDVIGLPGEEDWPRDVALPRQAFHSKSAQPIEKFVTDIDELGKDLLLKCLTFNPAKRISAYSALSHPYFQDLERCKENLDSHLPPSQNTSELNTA
CDK6/CycD3, sequence (P30281 whole entry partner): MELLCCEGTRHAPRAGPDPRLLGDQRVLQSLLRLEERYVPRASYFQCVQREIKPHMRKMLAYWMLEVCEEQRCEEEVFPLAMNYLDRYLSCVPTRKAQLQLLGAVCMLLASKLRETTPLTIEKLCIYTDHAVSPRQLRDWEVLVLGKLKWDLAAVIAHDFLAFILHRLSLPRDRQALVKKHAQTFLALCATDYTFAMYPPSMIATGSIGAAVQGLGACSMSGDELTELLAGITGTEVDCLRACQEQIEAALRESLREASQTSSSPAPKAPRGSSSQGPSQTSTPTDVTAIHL
CDK5/p35, sequence (Q00535 whole entry): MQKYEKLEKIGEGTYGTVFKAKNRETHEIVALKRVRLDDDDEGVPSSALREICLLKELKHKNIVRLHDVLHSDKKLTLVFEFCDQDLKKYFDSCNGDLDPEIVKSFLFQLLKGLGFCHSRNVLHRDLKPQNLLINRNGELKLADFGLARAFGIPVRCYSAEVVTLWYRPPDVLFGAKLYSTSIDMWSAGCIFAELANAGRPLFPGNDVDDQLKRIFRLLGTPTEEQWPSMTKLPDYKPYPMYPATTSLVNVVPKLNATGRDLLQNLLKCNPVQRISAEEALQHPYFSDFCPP
CDK5/p35, sequence (Q15078 whole entry partner): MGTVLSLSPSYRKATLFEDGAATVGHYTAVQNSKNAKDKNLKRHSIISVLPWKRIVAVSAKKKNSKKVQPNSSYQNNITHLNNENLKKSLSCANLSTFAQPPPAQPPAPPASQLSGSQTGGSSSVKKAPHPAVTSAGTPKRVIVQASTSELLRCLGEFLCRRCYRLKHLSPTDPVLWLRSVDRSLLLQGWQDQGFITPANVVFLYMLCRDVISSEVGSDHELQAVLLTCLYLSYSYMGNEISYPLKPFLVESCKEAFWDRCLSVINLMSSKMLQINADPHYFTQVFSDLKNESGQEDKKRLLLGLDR
CDK5/p25, sequence (Q00535 whole entry): as the sequence (Q00535 whole entry) above
CDK7/CycH/MAT1, sequence (P50613 whole entry): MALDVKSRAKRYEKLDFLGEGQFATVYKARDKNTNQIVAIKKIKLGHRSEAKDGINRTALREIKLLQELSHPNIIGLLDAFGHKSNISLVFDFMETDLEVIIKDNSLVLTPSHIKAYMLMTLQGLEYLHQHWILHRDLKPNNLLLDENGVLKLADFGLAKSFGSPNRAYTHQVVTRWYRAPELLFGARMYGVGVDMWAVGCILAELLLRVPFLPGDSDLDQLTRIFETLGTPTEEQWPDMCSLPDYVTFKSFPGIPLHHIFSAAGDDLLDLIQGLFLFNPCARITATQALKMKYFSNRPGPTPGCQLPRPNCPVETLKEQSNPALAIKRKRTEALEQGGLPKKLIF
CDK7/CycH/MAT1, sequence (P51946 whole entry partner): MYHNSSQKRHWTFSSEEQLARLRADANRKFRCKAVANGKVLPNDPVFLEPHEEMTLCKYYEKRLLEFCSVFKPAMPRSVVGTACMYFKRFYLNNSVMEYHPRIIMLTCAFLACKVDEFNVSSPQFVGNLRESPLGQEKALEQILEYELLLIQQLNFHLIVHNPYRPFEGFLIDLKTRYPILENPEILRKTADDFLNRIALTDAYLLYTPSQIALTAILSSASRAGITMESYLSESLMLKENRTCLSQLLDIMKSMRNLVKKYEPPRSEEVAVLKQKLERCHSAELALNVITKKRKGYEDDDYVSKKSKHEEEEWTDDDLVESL
CDK7/CycH/MAT1, sequence (P51948 whole entry partner): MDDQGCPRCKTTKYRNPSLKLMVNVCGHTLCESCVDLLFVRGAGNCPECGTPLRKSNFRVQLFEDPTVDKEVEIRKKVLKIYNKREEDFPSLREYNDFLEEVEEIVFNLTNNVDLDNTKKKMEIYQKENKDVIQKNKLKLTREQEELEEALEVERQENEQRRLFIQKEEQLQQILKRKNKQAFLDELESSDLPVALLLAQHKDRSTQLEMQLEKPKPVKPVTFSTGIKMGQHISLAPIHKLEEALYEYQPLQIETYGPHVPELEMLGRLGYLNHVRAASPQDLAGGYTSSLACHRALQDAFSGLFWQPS
CDK9/CycT, sequence (P50750 whole entry): as the sequence (P50750 whole entry) above
CDK9/CycT, sequence (O60563 whole entry partner): as the sequence (O60563 whole entry partner) above
CDK4/CycD, sequence (P11802 whole entry): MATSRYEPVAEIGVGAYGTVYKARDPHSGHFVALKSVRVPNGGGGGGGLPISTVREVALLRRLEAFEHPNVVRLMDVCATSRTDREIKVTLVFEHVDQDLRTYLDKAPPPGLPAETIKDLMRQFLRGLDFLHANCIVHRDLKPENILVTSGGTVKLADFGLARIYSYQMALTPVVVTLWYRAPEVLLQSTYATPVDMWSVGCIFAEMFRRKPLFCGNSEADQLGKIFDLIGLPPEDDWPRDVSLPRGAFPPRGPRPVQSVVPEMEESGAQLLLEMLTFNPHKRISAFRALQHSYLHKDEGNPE
CDK4/CycD, sequence (P24385 whole entry partner): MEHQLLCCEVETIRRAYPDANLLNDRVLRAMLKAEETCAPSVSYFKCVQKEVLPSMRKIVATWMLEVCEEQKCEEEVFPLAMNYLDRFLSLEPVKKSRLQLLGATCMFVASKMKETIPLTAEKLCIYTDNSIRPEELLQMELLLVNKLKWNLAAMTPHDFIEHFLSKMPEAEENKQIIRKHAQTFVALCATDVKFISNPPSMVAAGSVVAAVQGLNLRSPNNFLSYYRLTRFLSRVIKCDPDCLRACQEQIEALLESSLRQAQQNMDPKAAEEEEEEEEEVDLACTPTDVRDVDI
CDK6/Cyclin D3, sequence (Q00534 whole entry): as the sequence (Q00534 whole entry) above
CDK6/Cyclin D3, sequence (P30281 whole entry partner): as the sequence (P30281 whole entry partner) above
CDK4/CyclinD1, sequence (P11802 whole entry): as the sequence (P11802 whole entry) above
CDK4/CyclinD1, sequence (P24385 whole entry partner): as the sequence (P24385 whole entry partner) above

Regarding `CN1CCN(c2ccc(Nc3ncc4c(n3)N3C(=NCCC35CCCCC5)C=C4)nc2)CC1` [Compound 9, N-(5-(4-methylpiperazin-1-yl)pyridin-2-yl)-8′,9′-dihydrospiro[cyclohexane-1,10′-pyrido[1,6-a:2,3-d′]dipyrimidin]-2′-amine], the IC50 is greater than 100 µM at CDK2/CycA; greater than 100 µM against CDK7/CycH/MAT1; greater than 100 µM at CDK2/CycE; 1.8 µM against CDK6/CycD3; greater than 100 µM against CDK5/p35; greater than 100 µM on CDK9/CycT. Besides, the IC50 is greater than 100 µM at CDK5/p25 and 2.6 µM against CDK4/CycD.
Consider `CN1CCN(c2cnc(Nc3ncc4cc5n(c4n3)C3(CCCCC3)CNC5=O)nc2)CC1` [Compound 28, 2′-((5-(4-Methylpiperazin-1-yl)pyrimidin-2-yl)amino)-7′,8′-dihydro-6′H-spiro[cyclohexane-1,9′-pyrazino[1′,2′:1,5]pyrrolo [2,3-d]pyrimidin]-6′-one], for which the IC50 at CDK2/CyclinE was greater than 100 µM; at CDK2/CyclinA, 13.5 µM; on CDK6/Cyclin D3 it was 0.06 µM; at CDK4/CyclinD1, 0.02 µM; against CDK9/Cyclin T, 1 µM. Moreover, in the assay on Hs68 cells, the “population of apoptotic cells” value was “greater than 70%”.
Consider `CN1CCN(c2ccc(Nc3ncc4c(n3)N3C(CC4)C(=O)NCC34CCCCC4)nc2)CC1` (stereo not drawn) [Compound 4, 2′-((5-(4-methylpiperazin-1-yl)pyridin-2-yl)amino)-6′,6a′,8′,9′-tetrahydrospiro[cyclohexane-1,10′-pyrazino[1′,2′:1,6]pyrido[2,3-d]pyrimidin]-7′(5′H)-one], for which the IC50 is 86.4 µM on CDK2/CycA; greater than 100 µM at CDK7/CycH/MAT1; greater than 100 µM against CDK2/CycE; 75.9 µM on CDK6/CycD3; greater than 100 µM against CDK5/p35; greater than 100 µM at CDK9/CycT. In addition, the IC50 against CDK5/p25 is greater than 100 µM; on CDK4/CycD, 47.7 µM.
Consider `CN1CCN(c2ccc(Nc3ncc4c(n3)N3C(CC4=O)C(=O)NCC3(C)C)nc2)CC1` (stereo not drawn) [Compound 1, 10,10-dimethyl-2-((5-(4-methylpiperazin-1-yl)pyridin-2-yl)amino)-6,6a,9,10-tetrahydro-5H-pyrazino[1′,2′:1,6]pyrido[2,3-d]pyrimidine-5,7(8H)-dione], for which the IC50 was greater than 100 µM at CDK2/CycA; greater than 100 µM against CDK7/CycH/MAT1; greater than 100 µM against CDK2/CycE; 30.6 µM against CDK6/CycD3; greater than 100 µM against CDK5/p35; greater than 100 µM on CDK9/CycT. For the same compound, the IC50 on CDK5/p25 is greater than 100 µM; on CDK4/CycD, 8.06 µM.
As for `CN1CCN(c2ccc(Nc3ncc4c(n3)N3C(CC4=O)C(=O)NCC34CCCCC4)nc2)CC1` (stereo not drawn) [Compound 3], the IC50 on CDK2/CycA, on CDK7/CycH/MAT1, on CDK2/CycE, against CDK6/CycD3, on CDK5/p35 and on CDK9/CycT was greater than 100 µM in each case. The IC50 against CDK5/p25 and at CDK4/CycD was greater than 100 µM throughout.
Consider `CN1CCN(c2ccc(Nc3ncc4c(n3)N3CCNC(=O)C3CC4=O)nc2)CC1` (stereo not drawn) [Compound 6, 2-((5-(4-methylpiperazin-1-yl)pyridin-2-yl)amino)-6,6a,9,10-tetrahydro-5H-pyrazino[1′,2′:1,6]pyrido[2,3-d]pyrimidine-5,7(8H)-dione], for which the IC50 was greater than 100 µM at CDK2/CycA; greater than 100 µM against CDK7/CycH/MAT1; greater than 100 µM against CDK2/CycE; 50.4 µM on CDK6/CycD3; greater than 100 µM at CDK5/p35; greater than 100 µM against CDK9/CycT. The IC50 against CDK5/p25 is greater than 100 µM; against CDK4/CycD, 14.4 µM.
As for `CN1CCN(c2ccc(Nc3ncc4c(n3)N3C(CC4=O)C(=O)NCC34CCCC4)nc2)CC1` (stereo not drawn) [Compound 5, 2′-((5-(4-methylpiperazin-1-yl)pyridin-2-yl)amino)-6′,6a′,8′,9′-tetrahydrospiro[cyclopentane-1,10′-pyrazino[1′,2′:1,6]pyrido[2,3-d]pyrimidine]-5′,7′-dione], the IC50 on CDK2/CycA, at CDK7/CycH/MAT1, against CDK2/CycE, at CDK6/CycD3, at CDK5/p35 and against CDK9/CycT was greater than 100 µM throughout. The IC50 against CDK5/p25 and on CDK4/CycD was greater than 100 µM throughout.
